Data reported in the CheMixHub viscosity set.
± gives the uncertainty stated by the source.

Test: xn = mol fraction of the nth substance listed

CC(CC(C)(C)C)CC(C)(C)CC(C)(C)C (centres undefined) + CCCCCCCCCCCCC
viscosity [mPa·s], 100 kPa
Settings | x2 = 0.125 | x2 = 0.25 | x2 = 0.375 | x2 = 0.5 | x2 = 0.625 | x2 = 0.75 | x2 = 0.875
293.15 K | 3.28 ± 0.15 | 2.98 ± 0.14 | 2.69 ± 0.12 | 2.49 ± 0.11 | 2.29 ± 0.1 | 2.14 ± 0.1 | 1.98 ± 0.09
303.15 K | 2.65 ± 0.12 | 2.39 ± 0.11 | 2.18 ± 0.1 | 2.07 ± 0.09 | 1.89 ± 0.09 | 1.76 ± 0.08 | 1.64 ± 0.07
313.15 K | 2.15 ± 0.1 | 1.96 ± 0.09 | 1.79 ± 0.08 | 1.71 ± 0.08 | 1.57 ± 0.07 | 1.47 ± 0.07 | 1.39 ± 0.06
323.15 K | 1.79 ± 0.08 | 1.63 ± 0.07 | 1.51 ± 0.07 | 1.43 ± 0.06 | 1.33 ± 0.06 | 1.25 ± 0.06 | 1.18 ± 0.05

CCCCNCCCC + C1COCCO1
Settings | viscosity [mPa·s]
303.15 K, 101 kPa, x1 = 0.01068 | 1.065 ± 0.0078

CC(CC(C)(C)C)CC(C)(C)CC(C)(C)C (centres undefined) + CC1CCCCC1
viscosity [mPa·s], 100 kPa
Settings | x2 = 0.125 | x2 = 0.25 | x2 = 0.375 | x2 = 0.5 | x2 = 0.625 | x2 = 0.75 | x2 = 0.875
293.15 K | 3.188 ± 0.082 | 2.761 ± 0.068 | 2.275 ± 0.056 | 1.89 ± 0.046 | 1.52 ± 0.037 | 1.244 ± 0.029 | 0.967 ± 0.023
303.15 K | 2.553 ± 0.065 | 2.272 ± 0.057 | 1.864 ± 0.046 | 1.556 ± 0.038 | 1.283 ± 0.031 | 1.047 ± 0.025 | 0.834 ± 0.019
313.15 K | 2.1 ± 0.053 | 1.886 ± 0.047 | 1.574 ± 0.038 | 1.32 ± 0.032 | 1.096 ± 0.026 | 0.908 ± 0.021 | 0.725 ± 0.017
323.15 K | 1.766 ± 0.044 | 1.538 ± 0.038 | 1.329 ± 0.032 | 1.136 ± 0.027 | 0.953 ± 0.022 | 0.802 ± 0.019 | 0.641 ± 0.015

CCCC(=O)O + CC#N
viscosity [mPa·s], 101 kPa
Settings | x1 = 0.0598 | x1 = 0.1252 | x1 = 0.1971 | x1 = 0.2763 | x1 = 0.3641 | x1 = 0.4621 | x1 = 0.572 | x1 = 0.6961 | x1 = 0.8375
298.15 K | 0.3944 ± 0.023 | 0.4377 ± 0.024 | 0.5044 ± 0.024 | 0.5968 ± 0.026 | 0.717 ± 0.028 | 0.8653 ± 0.031 | 1.039 ± 0.035 | 1.229 ± 0.039 | 1.415 ± 0.043
308.15 K | 0.3452 ± 0.022 | 0.3849 ± 0.023 | 0.4455 ± 0.024 | 0.5285 ± 0.025 | 0.6349 ± 0.027 | 0.7632 ± 0.029 | 0.9084 ± 0.032 | 1.058 ± 0.035 | 1.187 ± 0.038
318.15 K | 0.3146 ± 0.022 | 0.3681 ± 0.023 | 0.4272 ± 0.023 | 0.4922 ± 0.024 | 0.5632 ± 0.025 | 0.6398 ± 0.027 | 0.7209 ± 0.028 | 0.8039 ± 0.03 | 0.8836 ± 0.031
